Data as given in patent US9220719B2, “Single dose oral formulations and methods for treatment of cats with ectoparasiticidal spinosad” (priority 2012, dated 2015).

Experiment: Pharmacokinetics of spinosad API capsules and spinosad tablets after oral administration to cats (Example 2)
Details: in vivo
Protocol: The plasma concentrations and resulting pharmacokinetics of spinosad tablets when administered orally to adult cats in the fed or fasted state can be evaluated. Twenty four cats (12 male and 12 female) can be dosed with approximately 80 mg/kg spinosad, as either API in gelatin capsules or as spinosad formulated chewable tablets. Serial blood samples can be collected through 672 hours (28 days) after dose administration. […] Samples can be immediately mixed by inversion several times and stored on ice until centrifuged. The plasma can be collected, split into two approximately equal aliquots and stored frozen at approximately −70° C. until shipped for analysis, and/or analyzed by a validated LC/MS/MS assay.

spinosad
AUC0-∞ in fed animals relative to fasted animals: 5-10 times
Cmax in fed animals relative to fasted animals: 4-7 times
